Assays:
normal rats = test: Novel object recognition (NOR); type: in vivo, rat; settings: for NOR duration of statistically significant effect after dosing: dose 0.004 μM/kg (0.004 μmol/kg oral), FIG. 2
Experimental: Memory was assessed by using a three-trial novel object recognition test (Luine et al., Pharm. Biochem. Behav. 74, 213-220 (2002)). On the first day (exploratory trial), rats were allowed to explore an open arena (44.5×44.5×30.5 cm) for 6 min. On the second day (acquisition trial), rats were allowed to explore the same arena in the presence of two identical objects (both object A) for 3 min. On the third day (retention or recall trial), performance was evaluated by allowing the same animal to re-explore the arena for 3 min in the presence of two different objects: the familiar object A and a novel object B. An inter-trial interval of 24 h was imposed between the three NOR trials. Recognition memory was assessed by comparing the time spent exploring a novel (object B) versus a familiar (object A) object during the recall trial. Recognition index was assessed for each animal and expressed as a ratio ((time B/time A+time B)×100).
(R)-3-((E)-2-(Pyrrolidin-3-yl)vinyl)-5-(tetrahydropyran-4-yloxy)pyridine or a salt thereof improved long-term visual episodic/declarative memory as assessed by novel object recognition (NOR) task following oral dosing in normal rats. […] In the two “recall only” sessions; subset of animals were orally dosed with water on day 1 (i.e., exploratory session) and day 2 (i.e., acquisition session) and then orally dosed either with 1.1 μmol/kg (R)-3-((E)-2-(pyrrolidin-3-yl)vinyl)-5-(tetrahydropyran-4-yloxy)pyridine or a salt thereof (left panel) or 0.04 μmol/kg (right panel) on day 3 (i.e., recall session). […] In the Figure, the dashed line at 65% denotes subjective criteria for biological cognitive enhancing activity. *P<0.05.
(R)-3-((E)-2-(Pyrrolidin-3-yl)vinyl)-5-(tetrahydropyran-4-yloxy)pyridine or a salt thereof was evaluated for its duration of effect in the NOR task in normal rats. […] In the Figure, the dashed line at 65% denotes subjective criteria for biological cognitive enhancing activity (*P<0.05).

[1] = tested on: CYP1A2, CYP2C9, CYP2C19, CYP2D6, CYP3A4 (5 major CYPs); test: in vitro; type: in vitro ADME; settings: human
Experimental: (§1) Inhibition of CYP1A2, CYP2C9, CYP2C19, CYP2D6 and CYP3A4 catalytic activity by (R)-3-((E)-2-(pyrrolidin-3-yl)vinyl)-5-(tetrahydropyran-4-yloxy)pyridine or a slat thereof was assessed using a fluorogenic CYP assay. Probe substrates which fluoresce upon CYP catalyzed oxidation were used to evaluate the degree of inhibition of the test substrate. A single concentration of each probe substrate (at approximately the apparent Km value) and two different concentrations of (R)-3-((E)-2-(pyrrolidin-3-yl)vinyl)-5-(tetrahydropyran-4-yloxy)pyridine hemigalactarate (2 and 20 μM) were tested in duplicate. Fluorescence intensity at selected wavelengths was used as a measure of enzyme activity. Decreased fluorescence in the presence of (R)-3-((E)-2-(pyrrolidin-3-yl)vinyl)-5-(tetrahydropyran-4-yloxy)pyridine or a sat thereof was an indication of inhibition. […] Duplicate samples were run alongside the positive and negative controls. Incubation of test samples was performed at 37° C. Experimental parameters are outlined in Table 2.

α4β2 = α4β2 (Homo sapiens, UniProt P17787+P43681); test: In vitro assay at α4β2, response compared to acetylcholine
Chain of α4β2 (P43681 29-627 limits assumed): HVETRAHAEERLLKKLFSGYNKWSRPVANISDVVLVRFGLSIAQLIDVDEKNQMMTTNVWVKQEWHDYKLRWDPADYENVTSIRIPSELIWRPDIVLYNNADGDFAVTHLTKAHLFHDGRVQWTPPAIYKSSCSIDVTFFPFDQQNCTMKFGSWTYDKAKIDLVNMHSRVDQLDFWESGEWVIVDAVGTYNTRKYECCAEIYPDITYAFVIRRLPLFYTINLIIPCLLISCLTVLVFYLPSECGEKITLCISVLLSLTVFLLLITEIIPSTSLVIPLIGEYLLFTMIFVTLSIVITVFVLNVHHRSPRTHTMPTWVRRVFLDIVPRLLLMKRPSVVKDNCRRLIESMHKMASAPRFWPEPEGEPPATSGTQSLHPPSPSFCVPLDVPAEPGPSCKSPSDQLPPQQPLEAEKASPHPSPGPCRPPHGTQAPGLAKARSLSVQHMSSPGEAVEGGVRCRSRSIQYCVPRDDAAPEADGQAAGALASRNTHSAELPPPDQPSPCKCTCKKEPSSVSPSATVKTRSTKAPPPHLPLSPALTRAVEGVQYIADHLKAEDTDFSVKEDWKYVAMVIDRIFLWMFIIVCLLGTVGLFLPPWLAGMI
Chain of α4β2 (P17787 26-502): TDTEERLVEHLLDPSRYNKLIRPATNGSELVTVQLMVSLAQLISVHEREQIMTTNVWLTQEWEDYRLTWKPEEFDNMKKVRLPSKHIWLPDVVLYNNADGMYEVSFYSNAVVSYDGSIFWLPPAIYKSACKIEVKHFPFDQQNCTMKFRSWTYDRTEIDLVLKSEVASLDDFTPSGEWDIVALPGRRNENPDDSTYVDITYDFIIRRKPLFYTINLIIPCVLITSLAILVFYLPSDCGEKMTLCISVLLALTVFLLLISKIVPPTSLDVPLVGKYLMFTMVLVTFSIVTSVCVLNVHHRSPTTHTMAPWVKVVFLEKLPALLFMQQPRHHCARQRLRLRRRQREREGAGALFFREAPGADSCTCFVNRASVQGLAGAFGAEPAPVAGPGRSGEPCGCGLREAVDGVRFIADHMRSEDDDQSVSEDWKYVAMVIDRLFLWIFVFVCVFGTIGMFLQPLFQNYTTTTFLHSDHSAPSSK

CYP2D6 = CYP2D6 (Homo sapiens, UniProt P10635); test: biochemical; type: in vitro ADME
Chain of CYP2D6 (P10635 whole entry): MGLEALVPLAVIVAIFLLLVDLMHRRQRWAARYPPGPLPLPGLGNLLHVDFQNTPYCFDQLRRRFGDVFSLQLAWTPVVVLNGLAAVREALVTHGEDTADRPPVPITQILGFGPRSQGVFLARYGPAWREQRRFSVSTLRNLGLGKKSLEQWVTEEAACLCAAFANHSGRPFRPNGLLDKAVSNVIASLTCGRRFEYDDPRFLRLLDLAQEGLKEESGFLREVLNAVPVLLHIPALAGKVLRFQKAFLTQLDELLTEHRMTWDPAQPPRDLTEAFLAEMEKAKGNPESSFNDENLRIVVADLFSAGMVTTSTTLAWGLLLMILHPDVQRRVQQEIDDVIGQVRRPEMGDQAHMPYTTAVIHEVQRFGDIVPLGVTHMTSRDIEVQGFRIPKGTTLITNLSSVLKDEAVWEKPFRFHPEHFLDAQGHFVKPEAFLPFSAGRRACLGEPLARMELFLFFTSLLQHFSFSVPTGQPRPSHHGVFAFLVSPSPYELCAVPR
Experimental: as §1

CYP2C19 = CYP2C19 (Homo sapiens, UniProt P33261); test: biochemical; type: in vitro ADME
Chain of CYP2C19 (P33261 whole entry): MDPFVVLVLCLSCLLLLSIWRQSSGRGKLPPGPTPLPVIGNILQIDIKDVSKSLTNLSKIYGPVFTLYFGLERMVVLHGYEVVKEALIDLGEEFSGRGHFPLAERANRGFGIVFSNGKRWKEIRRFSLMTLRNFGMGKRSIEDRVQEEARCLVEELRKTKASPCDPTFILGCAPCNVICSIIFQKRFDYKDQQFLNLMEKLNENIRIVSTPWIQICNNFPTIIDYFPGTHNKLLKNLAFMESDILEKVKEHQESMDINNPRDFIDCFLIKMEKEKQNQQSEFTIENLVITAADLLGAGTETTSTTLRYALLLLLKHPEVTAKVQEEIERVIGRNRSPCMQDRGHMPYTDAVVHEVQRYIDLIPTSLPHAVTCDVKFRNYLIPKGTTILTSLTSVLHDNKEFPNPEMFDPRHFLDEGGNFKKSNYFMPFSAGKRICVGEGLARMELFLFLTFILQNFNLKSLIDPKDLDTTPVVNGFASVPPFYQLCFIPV
Experimental: as §1

CYP1A2 = CYP1A2 (Homo sapiens, UniProt P05177); test: biochemical; type: in vitro ADME
Chain of CYP1A2 (P05177 whole entry): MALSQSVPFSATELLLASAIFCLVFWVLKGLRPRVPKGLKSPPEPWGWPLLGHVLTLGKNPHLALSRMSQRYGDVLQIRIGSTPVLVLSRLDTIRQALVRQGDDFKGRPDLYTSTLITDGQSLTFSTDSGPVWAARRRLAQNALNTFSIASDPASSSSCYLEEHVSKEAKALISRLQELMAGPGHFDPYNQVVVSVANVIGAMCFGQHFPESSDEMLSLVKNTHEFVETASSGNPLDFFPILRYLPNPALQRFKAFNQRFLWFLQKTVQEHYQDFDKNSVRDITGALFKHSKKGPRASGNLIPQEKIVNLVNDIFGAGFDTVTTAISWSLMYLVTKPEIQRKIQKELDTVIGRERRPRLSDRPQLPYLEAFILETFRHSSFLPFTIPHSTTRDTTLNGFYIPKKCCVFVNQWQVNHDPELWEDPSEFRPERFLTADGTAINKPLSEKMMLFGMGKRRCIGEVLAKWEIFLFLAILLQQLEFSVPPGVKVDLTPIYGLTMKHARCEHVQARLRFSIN
Experimental: as §1

CYP2C9 = CYP2C9 (Homo sapiens, UniProt P11712); test: biochemical; type: in vitro ADME
Chain of CYP2C9 (P11712 whole entry): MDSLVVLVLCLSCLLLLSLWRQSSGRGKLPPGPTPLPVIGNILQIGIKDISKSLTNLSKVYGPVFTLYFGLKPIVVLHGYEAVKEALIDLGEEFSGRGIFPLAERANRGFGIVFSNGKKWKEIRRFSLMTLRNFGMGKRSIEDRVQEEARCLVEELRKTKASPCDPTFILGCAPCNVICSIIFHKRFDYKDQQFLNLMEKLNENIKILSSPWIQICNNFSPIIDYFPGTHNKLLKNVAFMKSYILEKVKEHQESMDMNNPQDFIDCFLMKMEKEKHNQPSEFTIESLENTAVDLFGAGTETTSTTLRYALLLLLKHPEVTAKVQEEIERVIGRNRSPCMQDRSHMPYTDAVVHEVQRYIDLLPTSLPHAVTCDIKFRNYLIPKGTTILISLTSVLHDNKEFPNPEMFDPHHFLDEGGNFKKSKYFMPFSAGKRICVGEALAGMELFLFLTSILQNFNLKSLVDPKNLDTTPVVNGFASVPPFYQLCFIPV
Experimental: as §1

CYP3A4 [2] = target: T1, CYP3A4 (Homo sapiens, UniProt P08684); test: biochemical; type: in vitro ADME
T1 sequence (P08684 whole entry): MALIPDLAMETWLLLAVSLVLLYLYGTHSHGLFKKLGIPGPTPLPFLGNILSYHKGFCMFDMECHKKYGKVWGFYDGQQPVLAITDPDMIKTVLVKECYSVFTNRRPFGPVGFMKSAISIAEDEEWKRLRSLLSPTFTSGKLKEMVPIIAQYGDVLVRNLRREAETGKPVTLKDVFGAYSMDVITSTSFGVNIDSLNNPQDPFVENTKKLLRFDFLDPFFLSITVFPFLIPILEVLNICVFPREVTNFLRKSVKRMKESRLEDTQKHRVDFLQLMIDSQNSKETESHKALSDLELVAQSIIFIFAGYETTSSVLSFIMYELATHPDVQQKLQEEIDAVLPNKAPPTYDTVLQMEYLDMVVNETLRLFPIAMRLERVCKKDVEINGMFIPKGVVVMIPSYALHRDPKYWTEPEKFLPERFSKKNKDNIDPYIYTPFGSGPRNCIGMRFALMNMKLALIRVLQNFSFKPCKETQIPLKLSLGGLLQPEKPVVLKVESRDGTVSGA
Experimental: as §1

[3] = human
From the text: (§2) Therefore any variation of (R)-3-((E)-2-(pyrrolidin-3-yl)vinyl)-5-(tetrahydropyran-4-yloxy)pyridine or a salt thereof metabolism in human due to CYP polymorphism is expected to be less than 2 fold due to the significant renal clearance and low hepatic clearance.

[4] = target: T2, human native ganglion receptors (Homo sapiens, UniProt P30926+P32297); test: Ca flux assay, SH-SY5Y cells; type: cell-based
T2 construct: human native ganglion-type nicotinic receptors (likely α3β4); endogenous in cells; host or cells: SH-SY5Y
T2 sequence (P32297 32-505): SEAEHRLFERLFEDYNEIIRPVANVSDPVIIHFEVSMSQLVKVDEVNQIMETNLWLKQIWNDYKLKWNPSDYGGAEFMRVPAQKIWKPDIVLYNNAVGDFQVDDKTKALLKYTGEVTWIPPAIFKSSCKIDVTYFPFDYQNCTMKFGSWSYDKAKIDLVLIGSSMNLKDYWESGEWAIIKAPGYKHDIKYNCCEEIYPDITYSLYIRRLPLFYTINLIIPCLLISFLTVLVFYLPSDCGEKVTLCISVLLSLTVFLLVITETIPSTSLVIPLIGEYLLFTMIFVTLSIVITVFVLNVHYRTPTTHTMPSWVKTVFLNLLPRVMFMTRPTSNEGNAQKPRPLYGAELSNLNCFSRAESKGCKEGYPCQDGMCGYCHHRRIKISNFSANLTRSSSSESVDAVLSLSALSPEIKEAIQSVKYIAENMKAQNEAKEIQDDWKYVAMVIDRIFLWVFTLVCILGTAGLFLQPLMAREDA
T2 sequence (P30926 22-498): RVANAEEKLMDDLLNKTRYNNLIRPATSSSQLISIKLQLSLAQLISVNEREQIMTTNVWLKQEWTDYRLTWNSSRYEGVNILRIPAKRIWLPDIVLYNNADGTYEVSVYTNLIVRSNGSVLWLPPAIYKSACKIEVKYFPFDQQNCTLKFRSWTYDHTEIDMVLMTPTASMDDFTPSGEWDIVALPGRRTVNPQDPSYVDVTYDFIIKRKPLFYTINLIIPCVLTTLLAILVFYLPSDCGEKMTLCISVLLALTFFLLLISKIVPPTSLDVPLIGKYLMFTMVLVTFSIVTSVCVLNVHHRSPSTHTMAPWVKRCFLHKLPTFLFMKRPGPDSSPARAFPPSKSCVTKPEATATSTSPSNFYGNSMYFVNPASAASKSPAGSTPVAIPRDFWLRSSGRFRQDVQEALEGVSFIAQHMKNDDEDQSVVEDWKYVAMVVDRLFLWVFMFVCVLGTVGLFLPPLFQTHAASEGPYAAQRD
Experimental: The cell line SH-SY5Y is a continuous line derived by sequential subcloning of the parental cell line, SK-N-SH, which was originally obtained from a human peripheral neuroblastoma. SH-SY5Y cells express a ganglion-like nAChR (Lukas et al., Mol. Cell. Neurosci. 4: 1 (1993)).
(R)-3-((E)-2-(Pyrrolidin-3-yl)vinyl)-5-(tetrahydropyran-4-yloxy)pyridine or a salt thereof was tested in ganglion and muscle-type nicotinic receptor ion flux assays to examine functional selectivity.

CYP2D6 and FMO3 = type: in vitro ADME; settings: human
From the text: as §2

[5] = type: in vitro ADME; settings: human
From the text: as §2

[6] = tested on: neuronal nicotinic receptors (α-BnTx insensitive); test: Multiple receptor screening assay, nicotinic receptor; type: binding; settings: single concentration of 10 μM
Experimental: (R)-3-((E)-2-(Pyrrolidin-3-yl)vinyl)-5-(tetrahydropyran-4-yloxy)pyridine or a salt thereof was tested for selectivity against a panel of 65 receptors.

[7] = target: T3, human native muscle-type nicotinic receptors (likely α1β1γδ) (Homo sapiens, UniProt P02708+P07510+Q07001); test: [3H]epibatidine binding, TE-671 membranes
T3 construct: human native muscle-type nicotinic receptors (likely α1β1γδ); endogenous in cells; host or cells: TE-671 (TE671/RD)

CYP3A4 [8] = target: T1, CYP3A4; type: in vitro ADME

Molecule `C(=C\[C@H]1CCNC1)/c1cncc(OC2CCOCC2)c1` [Compound A, (R)-3-((E)-2-(pyrrolidin-3-yl)vinyl)-5-(tetrahydropyran-4-yloxy)pyridine] has an NOR recognition index (normal rats; 0.004 μmol/kg oral, 0.5 h after dosing) of 72±2%, an NOR recognition index (normal rats; 0.004 μmol/kg oral, 6 h after dosing) of 70±3% and an NOR recognition index (normal rats; 0.004 μmol/kg oral, 8 h after dosing) of 70±4%. The NOR recognition index (normal rats; 0.04 μmol/kg oral, normal rats, 24 h after acquisition trial) was 71±2%, the NOR recognition index (normal rats; 1.1 μmol/kg oral, normal rats, 24 h after acquisition trial) was 61±3% and the “NOR lowest dose with statistically significant effect” value (normal rats; FIG. 1) was at least 0.004 µM/kg. For the same molecule, the “NOR duration of statistically significant effect after dosing” value (normal rats) was at most 8 h, the “NOR duration of statistically significant effect after dosing” value (normal rats; listed as (R)-3-((E)-2-(pyrrolidin-3-yl)vinyl)-5-(tetrahydropyran-4-yloxy)pyridine) was “up to 8 h” and the “NOR duration of statistically significant effect after dosing” value (normal rats; listed as Formula I) was at most 8 h. The “NOR minimum effect dose (MED)” value (normal rats; oral, follow-up NOR study, rats) was 0.004 µmol/kg, the “NOR recognition index, recall only sessions” value (normal rats; single oral administration on day 3, 1.1 μmol/kg or 0.04 μmol/kg) was “significantly above controls” and the IC50 [1] was over 20 µM. The “response compared to acetylcholine” value (α4β2) was “twice as great”, the IC50 (CYP2D6) was over 20 µM and the IC50 (CYP2C19) was over 20 µM. It also gave an IC50 (CYP1A2) of over 20 µM, an IC50 (CYP2C9) of over 20 µM and an IC50 (CYP3A4 [2]) of over 20 µM. The “renal clearance share of total clearance” value [3] was “more than 50%”, the EC50 [4] was 11 µM and the “Human ganglionic (SH-SY5Y) Emax (Ca flux)” value ([4]; SH-SY5Y cells) was “μM, 13%”. The Emax ([4]; SH-SY5Y cells, read-out: Human ganglionic (SH-SY5Y) Emax (Ca flux)) was 13%, the “enzymes contributing to metabolism” value (CYP2D6 and FMO3) was “both CYP2D6 and FMO3 contributed to the metabolism” and the hepatic turnover rate [5] was “low hepatic turnover rate”. The “inhibition of binding of labelled ligand” value [6] was 99%, the Ki [7] was 25 µM and the “time-dependent inhibition of CYP3A4” value (CYP3A4 [8]) was “no evidence of time-dependent inhibition”.

Reference: patent US8153821B2, “Compounds” (priority 2008, dated 2012)
